Measured values: ChEMBL document CHEMBL1641415, “Discovery of a novel hybrid from finasteride and epristeride as 5α-reductase inhibitor” (Bioorg Med Chem Lett, 2011)

Tests used:
[1] = target: T1, 3-oxo-5-alpha-steroid 4-dehydrogenase 2 (Homo sapiens) (UniProt P31213); assay: Inhibition of human prostate 5alpha-reductase type 2 assessed as formation dihydrotestosterone from [4-14C] testosterone relative to finasteride; details: Prostate gland
T1 sequence (whole entry): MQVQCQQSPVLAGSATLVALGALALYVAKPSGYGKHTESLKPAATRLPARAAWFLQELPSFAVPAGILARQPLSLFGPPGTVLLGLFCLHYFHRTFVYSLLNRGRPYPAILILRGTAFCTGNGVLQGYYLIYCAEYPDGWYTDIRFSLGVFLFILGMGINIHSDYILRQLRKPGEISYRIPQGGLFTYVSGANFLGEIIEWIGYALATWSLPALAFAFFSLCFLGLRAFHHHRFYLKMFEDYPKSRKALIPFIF

[2] = target: T2, 3-oxo-5-alpha-steroid 4-dehydrogenase 2 (Homo sapiens, UniProt P31213); assay: Inhibition of human prostate 5alpha-reductase type 2 assessed as formation dihydrotestosterone from [4-14C] testosterone; assay type: tissue-based, Prostate gland
T2 sequence (P31213 whole entry): T1 sequence (whole entry)

Ratio [1]	IC50 [2] [nM]	SMILES
< 0.055	> 1000	C[C@]12CC[C@@H]3c4ccc(O)cc4CC[C@H]3[C@@H]1CCC(=O)N2
	35	CC(C)(C)NC(=O)[C@H]1CC[C@H]2[C@@H]3CC[C@H]4NC(=O)C=C[C@]4(C)[C@H]3CC[C@]12C [FINASTERIDE]
< 0.055	> 1000	C[C@]12CC[C@@H]3c4ccc(OS(=O)(=O)O)cc4CC[C@H]3[C@@H]1CCC(=O)N2
0.49	71	C[C@]12CCC(C(=O)O)=CC1=CC[C@@H]1[C@@H]2CC[C@]2(C)NC(=O)CC[C@@H]12
